Assay results taken from the NIST ThermoML archive (doi:10.1021/je060243s).
“And” between values parts separate entries of the source, which are not always exact repeats. Identical values can stand only once.

Test: wn = mass fraction of the nth substance listed
Settings: Liquid, Pulse-echo method, w2 = 0.5

FC(F)C(F)(F)F [pentafluoroethane] + FCF
speed of sound
Settings	288.2 K	298.2 K	308.25 K
1650 kPa	500.3 m/s	–	–
1680 kPa	–	440.6 m/s and 440.2 m/s and 440.3 m/s	–
1750 kPa	501.7 m/s	441.7 m/s	–
1880 kPa	503.4 m/s	444 m/s	–
2010 kPa	505.1 m/s	446 m/s	–
2130 kPa	–	448.2 m/s	–
2170 kPa	–	–	383.3 m/s and 383.4 m/s
2250 kPa	508.2 m/s	450 m/s	384.9 m/s
2380 kPa	–	–	387.7 m/s
2510 kPa	511.3 m/s	454 m/s	390.5 m/s
2750 kPa	514.7 m/s	457.8 m/s	395.6 m/s
3010 kPa	517.7 m/s	461.7 m/s	400.6 m/s
3500 kPa	524 m/s	469.1 m/s	409.9 m/s
4000 kPa	529.7 m/s	475.9 m/s	418.9 m/s
4500 kPa	535.6 m/s	483 m/s	427.4 m/s
5000 kPa	541.1 m/s	489.9 m/s	435.6 m/s
6010 kPa	552 m/s	502.6 m/s	450.5 m/s
7010 kPa	562.3 m/s	514.4 m/s	464.7 m/s
8000 kPa	572.3 m/s	525.7 m/s	477.8 m/s
9000 kPa	582 m/s	536.4 m/s	490.2 m/s
10000 kPa	591.2 m/s	546.7 m/s	501.7 m/s
12000 kPa	608.7 m/s	566.4 m/s	523.6 m/s
14000 kPa	625.1 m/s	584.5 m/s	543.5 m/s
16010 kPa	640.6 m/s	601.6 m/s and 601.3 m/s	562.1 m/s
18000 kPa	655.7 m/s	617.3 m/s	579.5 m/s
20000 kPa	669.7 m/s	632.4 m/s	596 m/s
23000 kPa	689.6 m/s	653.8 m/s	619 m/s
26000 kPa	708.7 m/s	673.7 m/s	640 m/s
29010 kPa	727 m/s	693 m/s	660.1 m/s
32000 kPa	744 m/s	711.1 m/s	678.9 m/s
35000 kPa	760.4 m/s	728.5 m/s	697.2 m/s
40000 kPa	786.1 m/s	754.9 m/s	–
45000 kPa	810 m/s	780.3 m/s	–
50000 kPa	833 m/s	803.7 m/s	–
55000 kPa	854.6 m/s	826.3 m/s	–
60000 kPa	875.4 m/s	847.6 m/s	–
65000 kPa	895.5 m/s	868.2 m/s	–

Settings	speed of sound [m/s]
298.25 K	440.4
